# Structures can show the parent of a compound that is named as a salt.
# Key:
# [1] = test system: platelet aggregation caused by ADP in platelet-rich plasma (PRP); assay: Test Example 1: in vitro platelet aggregation inhibitory effect; format: cell-based, rat (male Sprague-Dawley); conditions: 10 μg/ml test compound; rat PRP; ADP final concentration 10 μM; maximum platelet aggregation ratio
# Procedure: Male Sprague-Dawley rats (8-week old, Japan SLC, Inc.), 3 to 4 animals per group, were used for the test. The platelet aggregation was measured with an automatic platelet aggregometer (MCM Hema Tracer 313M, MC Medical, Inc.) by a partially modified method of Born et al., The Journal of Physiology, Vol. 168, Section 178 (1963). 6.3 ml of blood was sampled from the ventral aorta of a rat anesthetized with pentobarbital (40 mg/kg) using 3.8% (w/v) sodium citrate solution (0.7 ml) as an anticoagulant. The obtained blood containing citrate was centrifuged (230 g, 15 minutes, room temperature) to separate a platelet-rich plasma (hereinbelow abbreviated as PRP). The blood after the separation of PRP was further centrifuged (2,000 g, 10 minutes, room temperature) to separate a platelet-poor plasma (hereinbelow abbreviated as PPP). After the number of blood platelet in PRP was measured with a multi-item automatic blood corpuscle counter (KX-21N, Sysmex Corporation), PPP was added thereto to adjust the blood platelet count to 5×10^8/ml. After PRP (239 μl) was pipetted into cuvettes, test compounds (1 μl) dissolved in dimethylsulfoxide (DMSO) were added to PRP and the cuvettes were set in the automatic platelet aggregometer. DMSO (1 μl) was added in place of the test compounds for the control group. After preliminary warming (37° C.) for 1.5 minutes, 10 μl of adenosine 5′-diphosphate (ADP) solution (final concentration at 10 μM) was added to cause platelet aggregation. Platelet aggregation was measured for 5 minutes and the maximum platelet aggregation ratio was determined.
# [2] = test system: platelet aggregation caused by ADP in platelet-rich plasma (PRP) after oral administration; assay: Test Example 2: ex vivo platelet aggregation inhibitory effect; format: in vivo, rat (male Sprague-Dawley); conditions: 4 hours before blood sampling, rat PRP, ADP final concentration 3 μM, maximum platelet aggregation ratio; for inhibition at 10 mg/kg: 10 mg/kg orally, read-out: Test Example 1 (% inhibition) 10 mg/kg
# Procedure: Male Sprague-Dawley rats (8-week old, Japan SLC, Inc.), 3 to 4 animals per group, were used for the test. The platelet aggregation was measured with an automatic platelet aggregometer (MCM Hema Tracer 313M, MC Medical, Inc.) by a partially modified method of Bom et al., The Journal of Physiology, Vol. 168, Section 178 (1963). Test compounds suspended in 5% Arabian gum solution or 10% dimethylacetamide/64% polyethylene glycol 400/16% Tween 80 solution were orally administered in a dose ratio of 1 mL/kg 4 hours before blood sampling. Vehicle was orally administered 4 hours in a dose ratio of 1 mL/kg before the sampling of the blood for the control group. 6.3 ml of blood was sampled from the ventral aorta of a rat anesthetized with pentobarbital (40 mg/kg) using 3.8% (w/v) sodium citrate solution (0.7 ml) as an anticoagulant. The obtained blood containing citrate was centrifuged (230 g, 15 minutes, room temperature) to separate PRP. The blood after the separation of PRP was further centrifuged (2,000 g, 10 minutes, room temperature) to separate PPP. After the number of blood platelet in PRP was measured with a multi-item automatic blood corpuscle counter (KX-21N, Sysmex Corporation), PPP was added thereto to adjust the blood platelet to 5×10^8/ml. After PRP (240 μl) was pipetted into cuvettes, the cuvettes were set in the automatic platelet aggregometer. After preliminary warming (37° C.) for 1.5 minutes, 10 μl of ADP solution (final concentration 3 μM) was added to cause platelet aggregation. Platelet aggregation was measured for 5 minutes and the maximum platelet aggregation ratio was determined.
SMILES,inhibition at 10 µg/mL [1] [%],inhibition at 10 mg/kg [2] [%],"inhibition at 3 mg/kg ([2]; 3 mg/kg orally, read-out: Test Example 1 (% inhibition) 3 mg/kg) [%]"
"O=C(O)CCN1CCN(C/C=C2\CN(C(C(=O)C3CC3)c3ccccc3F)CCC2S)CC1=O (centres unmarked) [Example 19, (E)-3-(2-{4-[2-(Carboxyethyl)]-3-oxopiperazin-1-yl}ethylidene)-1-[2-cyclopropyl-1-(2-fluorophenyl)-2-oxoethyl]-4-sulfanylpiperidine dihydrochloride]",77,60,
"O=C(O)c1cnn(C/C=C2\CN(C(C(=O)C3CC3)c3ccccc3F)CCC2S)c1 (centres unmarked) [Example 44, (E)-3-[2-(4-Carboxy-1H-pyrazol-1-yl)ethylidene]-1-[2-cyclopropyl-1-(2-fluorophenyl)-2-oxoethyl]-4-sulfanylpiperidine hydrochloride]",81,,61
"COC(=O)CCN1CCN(C/C=C2\CN(C(C(=O)C3CC3)c3ccccc3F)CCC2S)CC1=O (centres unmarked) [Example 18, (E)-1-[2-Cyclopropyl-1-(2-fluorophenyl)-2-oxoethyl]-3-(2-{4-[2-(methoxycarbonyl)ethyl]-3-oxopiperazin-1-yl}ethylidene)-4-sulfanylpiperidine dihydrochloride]",73,74,
"CN(C/C=C1\CN(C(C(=O)C2CC2)c2ccccc2F)CCC1S)CC(=O)O (centres unmarked) [Example 83, (E)-3-{2-[N-(Carboxymethyl)-N-methylamino]ethylidene}-1-[2-cyclopropyl-1-(2-fluorophenyl)-2-oxoethyl]-4-sulfanylpiperidine dihydrochloride]",68,,
"O=C(O)Cc1cnn(C/C=C2\CN(C(C(=O)C3CC3)c3ccccc3F)CCC2S)c1 (centres unmarked) [Example 74, (E)-3-{2-[4-(Carboxymethyl)-1H-pyrazol-1-yl]ethylidene}-1-[2-cyclopropyl-1-(2-fluorophenyl)-2-oxoethyl]-4-sulfanylpiperidine hydrochloride]",80,100,
"O=C(O)c1cnn(C/C=C2/CN(C(C(=O)C3CC3)c3ccccc3F)CCC2S)c1 (centres unmarked) [Example 111, (Z)-3-[2-(4-Carboxy-1H-pyrazol-1-yl)ethylidene]-1-[2-cyclopropyl-1-(2-fluorophenyl)-2-oxoethyl]-4-sulfanylpiperidine hydrochloride]",82,82,
"O=C(O)CCN1CCN(C/C=C2\CN(C(C(=O)C3CC3)c3ccccc3F)CCC2S)C(=O)C1 (centres unmarked) [Example 23, (E)-3-(2-{4-[2-(Carboxyethyl)]-2-oxopiperazin-1-yl}ethylidene)-1-[2-cyclopropyl-1-(2-fluorophenyl)-2-oxoethyl]-4-sulfanylpiperidine dihydrochloride]",77,72,
"CN(C/C=C1/CN(C(C(=O)C2CC2)c2ccccc2F)CCC1S)CC(=O)O (centres unmarked) [Example 86, (Z)-3-{2-[N-(Carboxymethyl)-N-methylamino]ethylidene}-1-[2-cyclopropyl-1-(2-fluorophenyl)-2-oxoethyl]-4-sulfanylpiperidine dihydrochloride]",82,,
"O=C(O)CN1CCN(C/C=C2\CN(C(C(=O)C3CC3)c3ccccc3F)CCC2S)CC1=O (centres unmarked) [Example 15, (E)-3-{2-[4-(Carboxymethyl)-3-oxopiperazin-1-yl]ethylidene}-1-[2-cyclopropyl-1-(2-fluorophenyl)-2-oxoethyl]-4-sulfanylpiperidine dihydrochloride]",90,,
"CCOC(=O)c1cn(C/C=C2\CN(C(C(=O)C3CC3)c3ccccc3F)CCC2S)nn1 (centres unmarked) [Example 50, (E)-1-[2-Cyclopropyl-1-(2-fluorophenyl)-2-oxoethyl]-3-[2-(4-ethoxycarbonyl-1H-1,2,3-triazol-1-yl)ethylidene]-4-sulfanylpiperidine hydrochloride]",79,,
"O=C(O)c1cn(C/C=C2\CN(C(C(=O)C3CC3)c3ccccc3F)CCC2S)nn1 (centres unmarked) [Example 51, (E)-3-[2-(4-Carboxy-1H-1,2,3-triazol-1-yl)ethylidene]-1-[2-cyclopropyl-1-(2-fluorophenyl)-2-oxoethyl]-4-sulfanylpiperidine hydrochloride]",81,,
"CN(C/C=C1/CN(C(C(=O)C2CC2)c2ccccc2F)CCC1S)CCCC(=O)O (centres unmarked) [Example 91, (Z)-3-(2-{N-[3-(Carboxy)propyl]-N-methylamino}ethylidene)-1-[2-cyclopropyl-1-(2-fluorophenyl)-2-oxoethyl]-4-sulfanylpiperidine dihydrochloride]",74,,
"CCOC(=O)CCN1CCN(C/C=C2\CN(C(C(=O)C3CC3)c3ccccc3F)CCC2S)C(=O)C1 (centres unmarked) [Example 22, (E)-1-[2-Cyclopropyl-1-(2-fluorophenyl)-2-oxoethyl]-3-(2-{4-[2-(ethoxycarbonyl)ethyl]-2-oxopiperazin-1-yl}ethylidene)-4-sulfanylpiperidine dihydrochloride]",67,79,

# From patent US20090306059A1, “CYCLIC AMINE DERIVATIVE HAVING SUBSTITUTED ALKYL GROUP” (priority 2005, published 2009)
